Source: ChEMBL document CHEMBL1201862, “PubChem BioAssay data set” (2004)
Entries after “also recorded” stand apart in the source; their conditions may differ. Calls of active or inactive are those of the source.

Legend:
Apelin receptor = Apelin receptor (Homo sapiens, UniProt P35414); assay: apelin receptor antagonists, arrestin read-out – cell-based, luminescent, enzyme-fragment complementation, selectivity assay for CCR6 antagonist project, SAR follow-up (AID 588359); assay type: functional
Beta-galactosidase = Beta-galactosidase (Escherichia coli, UniProt Q8VNN2); assay: detection-enzyme interference by beta-gal modulators – biochemical, E. coli enzyme, set 3, artefact control for CCR6 antagonist project, dose response (AID 504712); assay type: functional
[1] = restored growth of temperature-sensitive Burl-1 yeast – whole organism, S. cerevisiae, Burl-1 ts mutant, luminescence, counter-screen for SUMOylation pathway inhibitor project, dose response (AID 463199); assay type: functional
[2] = molecular target: T1, Heat shock factor protein 1 (Mus musculus, UniProt P38532); assay: decrease of HSF1-responsive luciferase luminescence – cell-based, NIH3T3, dose retest, confirmation (AID 2382); assay type: functional;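 also: NIH3T3 fibroblasts with HSF1-driven luciferase reporter stressed by proteasome inhibitor MG132; luminescence from HSF1-driven luciferase expression after 8 hours of MG132 stress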
T1 sequence (P38532 whole entry): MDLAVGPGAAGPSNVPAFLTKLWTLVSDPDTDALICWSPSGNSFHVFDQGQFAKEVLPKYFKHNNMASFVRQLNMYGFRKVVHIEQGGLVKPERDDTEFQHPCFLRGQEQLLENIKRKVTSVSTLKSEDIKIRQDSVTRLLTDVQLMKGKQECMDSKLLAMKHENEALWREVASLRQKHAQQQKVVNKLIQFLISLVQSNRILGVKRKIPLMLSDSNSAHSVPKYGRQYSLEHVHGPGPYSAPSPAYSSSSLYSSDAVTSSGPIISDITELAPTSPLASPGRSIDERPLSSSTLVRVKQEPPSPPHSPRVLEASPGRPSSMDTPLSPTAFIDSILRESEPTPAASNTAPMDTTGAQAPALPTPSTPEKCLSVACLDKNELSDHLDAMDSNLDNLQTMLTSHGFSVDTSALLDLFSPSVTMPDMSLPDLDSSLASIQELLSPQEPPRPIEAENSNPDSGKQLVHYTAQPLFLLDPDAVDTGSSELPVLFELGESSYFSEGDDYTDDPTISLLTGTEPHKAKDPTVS

[3] = molecular target: T2, Apoptotic protease-activating factor 1 (Homo sapiens, UniProt O14727); assay type: functional
T2 sequence (O14727 whole entry): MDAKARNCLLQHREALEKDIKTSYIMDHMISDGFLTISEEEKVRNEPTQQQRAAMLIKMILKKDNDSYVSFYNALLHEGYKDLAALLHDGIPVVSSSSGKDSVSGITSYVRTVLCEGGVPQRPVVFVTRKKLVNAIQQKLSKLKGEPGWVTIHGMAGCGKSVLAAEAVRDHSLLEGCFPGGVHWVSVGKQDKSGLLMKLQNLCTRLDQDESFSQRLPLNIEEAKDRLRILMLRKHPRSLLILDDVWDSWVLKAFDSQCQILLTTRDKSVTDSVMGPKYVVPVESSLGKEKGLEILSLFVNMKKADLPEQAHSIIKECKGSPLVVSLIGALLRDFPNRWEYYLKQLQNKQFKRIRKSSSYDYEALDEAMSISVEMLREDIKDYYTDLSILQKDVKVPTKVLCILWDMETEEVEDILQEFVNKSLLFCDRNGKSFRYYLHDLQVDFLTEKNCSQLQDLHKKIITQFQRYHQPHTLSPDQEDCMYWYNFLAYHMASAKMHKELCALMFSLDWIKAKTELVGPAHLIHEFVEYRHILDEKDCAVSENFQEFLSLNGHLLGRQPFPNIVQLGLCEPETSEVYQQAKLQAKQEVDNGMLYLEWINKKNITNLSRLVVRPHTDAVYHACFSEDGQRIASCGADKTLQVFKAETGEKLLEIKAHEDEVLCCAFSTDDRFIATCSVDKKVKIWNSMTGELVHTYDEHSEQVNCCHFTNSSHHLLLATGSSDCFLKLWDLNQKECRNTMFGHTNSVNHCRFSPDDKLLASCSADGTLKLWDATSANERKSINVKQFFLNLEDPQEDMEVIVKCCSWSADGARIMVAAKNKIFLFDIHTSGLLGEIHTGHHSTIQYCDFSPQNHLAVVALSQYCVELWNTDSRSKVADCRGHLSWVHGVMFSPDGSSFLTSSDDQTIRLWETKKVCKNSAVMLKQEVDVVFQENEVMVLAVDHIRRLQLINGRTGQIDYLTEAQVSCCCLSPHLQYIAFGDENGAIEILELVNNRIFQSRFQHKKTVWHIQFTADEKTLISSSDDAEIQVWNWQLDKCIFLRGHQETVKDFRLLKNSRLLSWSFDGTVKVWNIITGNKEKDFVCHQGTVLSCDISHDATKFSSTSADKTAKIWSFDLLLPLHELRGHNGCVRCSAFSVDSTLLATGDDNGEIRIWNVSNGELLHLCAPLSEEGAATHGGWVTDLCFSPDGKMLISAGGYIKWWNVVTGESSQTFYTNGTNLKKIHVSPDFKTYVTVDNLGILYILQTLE

[4] = molecular target: DNA dC->dU-editing enzyme APOBEC-3A (Homo sapiens, UniProt P31941); assay: A3A deaminase inhibition for selectivity – biochemical, dose response (AID 504722); assay type: functional
[5] = molecular target: DNA dC->dU-editing enzyme APOBEC-3G (Homo sapiens, UniProt Q9HC16); assay: Dose Response confirmation of small molecule APOBEC3G DNA Deaminase Inhibitors via a fluorescence-based single-stranded DNA deaminase assay. [Related pubchem assays (depositor defined):AID493012, AID493028]; assay type: functional
[6] = molecular target: T3, Rac GTPase-activating protein 1 (Homo sapiens, UniProt Q9H0H5); assay: blockers of MgcRacGAP-driven Rac1 GTP hydrolysis – biochemical, ADP Hunter fluorescence, primary and confirmatory, confirmation (AID 624330); assay type: functional
T3 sequence (Q9H0H5 whole entry): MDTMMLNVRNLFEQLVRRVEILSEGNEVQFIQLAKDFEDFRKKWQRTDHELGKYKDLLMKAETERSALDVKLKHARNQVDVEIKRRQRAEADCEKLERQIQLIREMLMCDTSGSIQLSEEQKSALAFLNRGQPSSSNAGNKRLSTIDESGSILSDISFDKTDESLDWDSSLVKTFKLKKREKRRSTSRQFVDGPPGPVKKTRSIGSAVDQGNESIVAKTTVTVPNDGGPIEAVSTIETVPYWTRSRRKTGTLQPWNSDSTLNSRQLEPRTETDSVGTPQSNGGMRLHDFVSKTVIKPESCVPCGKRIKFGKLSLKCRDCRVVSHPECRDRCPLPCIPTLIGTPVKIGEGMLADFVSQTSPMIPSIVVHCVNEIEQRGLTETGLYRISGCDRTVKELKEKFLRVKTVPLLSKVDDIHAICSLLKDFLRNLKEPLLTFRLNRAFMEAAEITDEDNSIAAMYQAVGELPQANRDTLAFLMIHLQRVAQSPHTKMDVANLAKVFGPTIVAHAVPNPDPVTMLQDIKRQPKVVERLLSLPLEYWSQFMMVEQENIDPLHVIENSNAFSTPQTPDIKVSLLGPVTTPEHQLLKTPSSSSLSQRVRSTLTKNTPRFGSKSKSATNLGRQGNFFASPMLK

[7] = molecular target: Lysine-specific demethylase 4C (Homo sapiens, UniProt Q9H3R0); assay: inhibition of JMJD2C H3K9me3 demethylation – biochemical, DELFIA europium, cherry-picked samples, dose response (AID 488835); assay type: functional
[8] = molecular target: Heat shock protein HSP 90-alpha (Homo sapiens, UniProt P07900); assay type: functional, organism-based
INS1 = assay: INS-1E survival protection against cytokine death – cell-based, luminescence, retest, dose response (AID 449756); assay type: functional; settings: Rattus norvegicus;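 also: cell death triggered by IL-1 beta plus TNF-alpha plus IFN-gamma mixture; protective hits raise ATP signal compared with cytokine alone wells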
[9] = molecular target: RNA-editing ligase 1, mitochondrial (Trypanosoma brucei brucei, UniProt P86926); assay: inhibition of trypanosome RNA editing ligase – biochemical, fluorescence, Trypanosoma brucei, dose response (AID 1117295); assay type: functional
Cytochrome P450 2C19 = Cytochrome P450 2C19 (Homo sapiens, UniProt P33261); assay: Cytochrome panel assay with activity outcomes. Panel member name: p450-cyp2c19 Compounds with AC50 equal or less than 10 uM are considered active; assay type: functional
Cytochrome P450 1A2 [10] = molecular target: T4, Cytochrome P450 1A2 (Homo sapiens, UniProt P05177);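 also: PubChem cytochrome P450 panel assay, CYP1A2 panel member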
T4 sequence (P05177 whole entry): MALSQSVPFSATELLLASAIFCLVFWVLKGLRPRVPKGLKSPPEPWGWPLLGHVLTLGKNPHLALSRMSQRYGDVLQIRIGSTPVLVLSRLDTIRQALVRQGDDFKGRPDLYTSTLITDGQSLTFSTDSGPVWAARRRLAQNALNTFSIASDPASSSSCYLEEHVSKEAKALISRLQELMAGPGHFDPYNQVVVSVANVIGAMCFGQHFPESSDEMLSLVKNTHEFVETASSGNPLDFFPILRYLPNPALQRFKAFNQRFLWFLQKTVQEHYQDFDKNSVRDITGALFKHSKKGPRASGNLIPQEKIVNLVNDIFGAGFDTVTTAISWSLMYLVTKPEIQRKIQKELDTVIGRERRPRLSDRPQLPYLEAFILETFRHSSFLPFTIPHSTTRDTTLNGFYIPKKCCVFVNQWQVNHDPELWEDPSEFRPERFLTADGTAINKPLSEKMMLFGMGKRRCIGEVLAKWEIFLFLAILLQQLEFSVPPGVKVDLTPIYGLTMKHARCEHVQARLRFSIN

[11] = molecular target: T5, Short transient receptor potential channel 4 (Mus musculus, UniProt Q9QUQ5); assay: SAR Analysis for the identification of selective inhibits of the transient receptor potential cation channel C4 (TRPC4): Automated Electrophysiology. [Related pubchem assays (depositor defined):AID2256]; assay type: functional
T5 sequence (Q9QUQ5 whole entry): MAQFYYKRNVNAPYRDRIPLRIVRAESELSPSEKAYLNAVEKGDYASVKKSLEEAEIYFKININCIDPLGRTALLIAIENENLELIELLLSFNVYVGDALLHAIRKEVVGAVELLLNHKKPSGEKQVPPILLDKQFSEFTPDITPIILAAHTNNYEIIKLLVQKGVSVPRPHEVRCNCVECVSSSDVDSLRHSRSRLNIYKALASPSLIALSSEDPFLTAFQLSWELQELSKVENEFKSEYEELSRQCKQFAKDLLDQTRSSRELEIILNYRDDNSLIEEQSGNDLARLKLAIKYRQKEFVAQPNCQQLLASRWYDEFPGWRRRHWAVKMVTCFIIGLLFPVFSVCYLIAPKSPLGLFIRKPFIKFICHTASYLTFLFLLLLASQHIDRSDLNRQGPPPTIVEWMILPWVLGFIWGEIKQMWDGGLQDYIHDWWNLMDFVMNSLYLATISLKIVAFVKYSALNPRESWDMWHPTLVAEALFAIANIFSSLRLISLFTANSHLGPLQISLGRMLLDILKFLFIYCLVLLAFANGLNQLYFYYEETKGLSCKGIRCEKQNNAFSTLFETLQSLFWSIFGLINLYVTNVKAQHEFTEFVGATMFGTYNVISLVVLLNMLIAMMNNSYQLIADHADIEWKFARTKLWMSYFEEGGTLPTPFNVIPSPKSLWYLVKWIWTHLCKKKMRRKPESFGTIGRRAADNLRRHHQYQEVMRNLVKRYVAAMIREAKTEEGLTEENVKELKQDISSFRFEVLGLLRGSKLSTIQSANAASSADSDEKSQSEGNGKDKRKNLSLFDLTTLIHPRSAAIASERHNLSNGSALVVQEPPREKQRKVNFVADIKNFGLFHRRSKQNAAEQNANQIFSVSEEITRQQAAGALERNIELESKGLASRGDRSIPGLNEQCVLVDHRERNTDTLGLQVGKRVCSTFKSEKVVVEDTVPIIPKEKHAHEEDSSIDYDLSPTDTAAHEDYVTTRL

[12] = molecular target: T5, Short transient receptor potential channel 4; assay: block of DAMGO-driven TRPC4 calcium entry – cell-based, HEK293 TRPC4/mu-opioid, Fluo-4 calcium, dose response (AID 434942); assay type: functional;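 also: potency of inhibitors blocking the TRPC4 calcium response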
Cytochrome P450 3A4 [13] = molecular target: T6, Cytochrome P450 3A4 (Homo sapiens, UniProt P08684);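 also: CYP3A4 tested as one member of a cytochrome P450 panel screen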
Cytochrome P450 2D6 [14] = molecular target: T7, Cytochrome P450 2D6 (Homo sapiens, UniProt P10635); assay: qHTS Assay for Inhibitors and Substrates of Cytochrome P450 2D6. [Related pubchem assays: 410 ]; assay type: ADME; settings: read-out: Potency
Cytochrome P450 2D6 [15] = molecular target: T7, Cytochrome P450 2D6
Cytochrome P450 1A2 [16] = molecular target: T4, Cytochrome P450 1A2; remark: listed apart in the source
Cytochrome P450 2C9 = Cytochrome P450 2C9 (Homo sapiens, UniProt P11712)
Cytochrome P450 3A4 [17] = molecular target: T6, Cytochrome P450 3A4; remark: listed apart in the source

T7 sequence (P10635 whole entry): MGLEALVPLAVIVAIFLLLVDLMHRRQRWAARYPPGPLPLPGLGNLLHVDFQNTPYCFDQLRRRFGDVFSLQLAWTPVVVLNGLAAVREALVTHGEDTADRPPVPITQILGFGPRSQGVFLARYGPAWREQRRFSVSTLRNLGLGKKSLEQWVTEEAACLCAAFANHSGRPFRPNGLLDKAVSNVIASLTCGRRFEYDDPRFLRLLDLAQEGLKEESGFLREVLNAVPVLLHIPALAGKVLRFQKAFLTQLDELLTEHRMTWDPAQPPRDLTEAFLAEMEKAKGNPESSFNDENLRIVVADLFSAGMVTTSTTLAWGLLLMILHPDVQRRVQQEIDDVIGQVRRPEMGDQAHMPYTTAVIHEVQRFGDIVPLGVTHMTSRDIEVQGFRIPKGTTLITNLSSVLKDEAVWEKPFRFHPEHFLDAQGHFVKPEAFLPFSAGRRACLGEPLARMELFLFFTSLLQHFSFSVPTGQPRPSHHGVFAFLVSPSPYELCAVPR
Sequence of Cytochrome P450 2C19 (P33261 whole entry): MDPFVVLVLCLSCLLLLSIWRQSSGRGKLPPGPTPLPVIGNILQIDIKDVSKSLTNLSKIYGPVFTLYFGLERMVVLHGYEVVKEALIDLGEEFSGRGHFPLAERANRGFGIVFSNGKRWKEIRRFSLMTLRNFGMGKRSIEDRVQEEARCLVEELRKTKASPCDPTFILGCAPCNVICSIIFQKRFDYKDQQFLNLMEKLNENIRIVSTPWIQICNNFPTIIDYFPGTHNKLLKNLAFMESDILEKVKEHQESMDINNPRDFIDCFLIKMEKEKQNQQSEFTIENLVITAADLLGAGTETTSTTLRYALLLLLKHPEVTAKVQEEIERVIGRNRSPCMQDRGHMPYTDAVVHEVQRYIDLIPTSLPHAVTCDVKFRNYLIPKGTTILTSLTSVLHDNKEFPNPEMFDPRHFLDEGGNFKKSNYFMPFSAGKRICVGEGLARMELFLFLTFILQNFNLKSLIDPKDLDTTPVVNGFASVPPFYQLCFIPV
T6 sequence (P08684 whole entry): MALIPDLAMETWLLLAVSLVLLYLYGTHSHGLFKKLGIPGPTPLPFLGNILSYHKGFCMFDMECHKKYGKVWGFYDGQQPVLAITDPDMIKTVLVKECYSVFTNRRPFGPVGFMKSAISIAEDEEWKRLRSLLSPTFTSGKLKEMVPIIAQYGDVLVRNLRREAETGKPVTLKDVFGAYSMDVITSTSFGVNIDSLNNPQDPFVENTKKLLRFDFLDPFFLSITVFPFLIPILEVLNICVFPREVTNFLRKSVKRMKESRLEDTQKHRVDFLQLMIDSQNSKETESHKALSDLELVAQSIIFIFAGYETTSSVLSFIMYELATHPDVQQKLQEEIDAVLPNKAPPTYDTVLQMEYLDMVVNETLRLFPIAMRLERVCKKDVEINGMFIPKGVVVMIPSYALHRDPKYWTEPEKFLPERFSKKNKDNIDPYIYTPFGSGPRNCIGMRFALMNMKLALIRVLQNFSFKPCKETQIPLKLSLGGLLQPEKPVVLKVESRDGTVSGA
Sequence of Apelin receptor (P35414 whole entry, the tested form may be a part): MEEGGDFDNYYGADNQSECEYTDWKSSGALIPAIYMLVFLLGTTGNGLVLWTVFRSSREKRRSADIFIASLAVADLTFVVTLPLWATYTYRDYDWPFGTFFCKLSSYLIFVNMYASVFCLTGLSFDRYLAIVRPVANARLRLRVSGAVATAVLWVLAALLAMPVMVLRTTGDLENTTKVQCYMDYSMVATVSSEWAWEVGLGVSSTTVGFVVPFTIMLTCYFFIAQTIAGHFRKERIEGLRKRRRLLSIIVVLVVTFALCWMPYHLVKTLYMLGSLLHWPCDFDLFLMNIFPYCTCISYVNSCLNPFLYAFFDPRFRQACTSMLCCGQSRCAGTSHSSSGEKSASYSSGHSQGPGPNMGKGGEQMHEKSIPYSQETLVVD
Sequence of Lysine-specific demethylase 4C (Q9H3R0 whole entry): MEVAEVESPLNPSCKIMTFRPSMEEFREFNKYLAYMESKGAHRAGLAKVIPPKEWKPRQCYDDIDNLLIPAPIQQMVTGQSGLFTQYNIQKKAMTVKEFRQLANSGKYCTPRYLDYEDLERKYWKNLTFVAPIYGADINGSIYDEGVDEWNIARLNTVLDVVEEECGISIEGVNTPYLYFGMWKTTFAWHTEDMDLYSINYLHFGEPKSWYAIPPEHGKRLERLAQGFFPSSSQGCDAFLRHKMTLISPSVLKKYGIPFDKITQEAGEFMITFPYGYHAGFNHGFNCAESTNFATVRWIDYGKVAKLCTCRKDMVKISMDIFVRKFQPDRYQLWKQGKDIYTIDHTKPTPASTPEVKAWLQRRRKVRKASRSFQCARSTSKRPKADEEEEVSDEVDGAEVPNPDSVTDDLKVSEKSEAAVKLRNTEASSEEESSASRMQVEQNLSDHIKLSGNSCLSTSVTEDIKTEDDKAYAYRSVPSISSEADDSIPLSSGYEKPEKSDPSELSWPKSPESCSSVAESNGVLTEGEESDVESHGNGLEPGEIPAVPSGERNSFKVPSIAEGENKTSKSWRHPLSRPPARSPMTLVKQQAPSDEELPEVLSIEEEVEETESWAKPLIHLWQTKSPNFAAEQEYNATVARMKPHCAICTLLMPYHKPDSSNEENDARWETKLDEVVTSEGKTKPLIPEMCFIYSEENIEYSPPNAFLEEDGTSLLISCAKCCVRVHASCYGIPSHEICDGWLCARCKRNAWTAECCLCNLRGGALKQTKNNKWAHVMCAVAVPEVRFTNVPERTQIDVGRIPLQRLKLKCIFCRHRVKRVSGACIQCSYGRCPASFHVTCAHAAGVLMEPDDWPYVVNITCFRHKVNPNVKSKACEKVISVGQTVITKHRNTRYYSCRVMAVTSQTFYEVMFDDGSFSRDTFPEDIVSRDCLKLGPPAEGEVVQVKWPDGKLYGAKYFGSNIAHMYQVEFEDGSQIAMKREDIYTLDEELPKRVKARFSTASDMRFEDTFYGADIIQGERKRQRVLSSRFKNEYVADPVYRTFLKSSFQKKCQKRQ
Sequence of RNA-editing ligase 1, mitochondrial (P86926 whole entry): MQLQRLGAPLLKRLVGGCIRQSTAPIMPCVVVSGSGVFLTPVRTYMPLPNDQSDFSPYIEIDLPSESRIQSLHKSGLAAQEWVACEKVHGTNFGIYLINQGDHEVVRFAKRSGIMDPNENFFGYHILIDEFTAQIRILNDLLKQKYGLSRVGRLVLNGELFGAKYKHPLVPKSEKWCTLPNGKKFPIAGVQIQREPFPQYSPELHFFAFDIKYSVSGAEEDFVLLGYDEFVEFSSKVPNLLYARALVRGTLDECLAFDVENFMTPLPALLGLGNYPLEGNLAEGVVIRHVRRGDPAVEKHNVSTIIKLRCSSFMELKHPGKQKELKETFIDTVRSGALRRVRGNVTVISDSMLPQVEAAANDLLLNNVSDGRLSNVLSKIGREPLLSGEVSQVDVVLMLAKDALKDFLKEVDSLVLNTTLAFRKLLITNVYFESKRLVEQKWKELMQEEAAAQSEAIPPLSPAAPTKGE
Sequence of Cytochrome P450 2C9 (P11712 whole entry): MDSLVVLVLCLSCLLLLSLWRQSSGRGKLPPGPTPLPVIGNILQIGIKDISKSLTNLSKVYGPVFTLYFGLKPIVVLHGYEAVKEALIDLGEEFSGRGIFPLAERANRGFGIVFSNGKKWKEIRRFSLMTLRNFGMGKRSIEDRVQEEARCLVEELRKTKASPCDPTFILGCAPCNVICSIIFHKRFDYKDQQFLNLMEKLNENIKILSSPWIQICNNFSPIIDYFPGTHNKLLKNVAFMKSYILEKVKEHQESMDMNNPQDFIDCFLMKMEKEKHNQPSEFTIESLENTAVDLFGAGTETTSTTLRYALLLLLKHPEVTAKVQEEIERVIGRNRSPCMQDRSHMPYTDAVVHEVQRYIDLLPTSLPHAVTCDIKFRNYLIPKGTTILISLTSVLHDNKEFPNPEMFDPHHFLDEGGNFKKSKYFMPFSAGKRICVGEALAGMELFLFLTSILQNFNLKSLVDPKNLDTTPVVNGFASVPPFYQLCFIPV
Sequence of Beta-galactosidase (Q8VNN2 whole entry): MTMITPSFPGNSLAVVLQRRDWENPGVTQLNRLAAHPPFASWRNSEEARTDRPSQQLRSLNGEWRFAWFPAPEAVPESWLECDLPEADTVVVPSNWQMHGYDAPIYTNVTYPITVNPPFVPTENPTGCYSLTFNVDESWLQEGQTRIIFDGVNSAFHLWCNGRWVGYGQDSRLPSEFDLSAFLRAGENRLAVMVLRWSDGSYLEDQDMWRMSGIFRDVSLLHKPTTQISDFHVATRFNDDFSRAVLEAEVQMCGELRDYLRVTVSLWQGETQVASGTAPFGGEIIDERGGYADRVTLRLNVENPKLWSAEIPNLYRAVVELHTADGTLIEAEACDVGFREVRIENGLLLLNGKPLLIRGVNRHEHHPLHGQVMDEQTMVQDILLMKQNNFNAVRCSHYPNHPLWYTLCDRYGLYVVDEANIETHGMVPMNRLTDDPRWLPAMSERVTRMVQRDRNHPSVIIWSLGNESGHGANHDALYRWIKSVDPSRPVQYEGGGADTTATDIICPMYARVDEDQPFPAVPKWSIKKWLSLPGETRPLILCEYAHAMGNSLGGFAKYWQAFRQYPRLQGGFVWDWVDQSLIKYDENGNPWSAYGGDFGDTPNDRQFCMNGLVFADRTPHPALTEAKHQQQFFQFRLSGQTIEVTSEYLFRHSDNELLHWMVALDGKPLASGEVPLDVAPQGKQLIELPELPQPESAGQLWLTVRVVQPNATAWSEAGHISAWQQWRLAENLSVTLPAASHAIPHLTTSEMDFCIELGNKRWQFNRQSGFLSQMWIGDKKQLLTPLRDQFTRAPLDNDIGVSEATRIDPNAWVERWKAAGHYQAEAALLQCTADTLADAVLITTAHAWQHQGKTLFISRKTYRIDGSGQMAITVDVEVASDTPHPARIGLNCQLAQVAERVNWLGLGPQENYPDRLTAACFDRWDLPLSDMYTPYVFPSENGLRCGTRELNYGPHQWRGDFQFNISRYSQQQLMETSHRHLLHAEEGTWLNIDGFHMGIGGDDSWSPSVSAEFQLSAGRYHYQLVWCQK

## O=C(NNC(=O)c1cc(-c2ccccc2)nn1-c1ccccc1)c1ccccc1
Apelin receptor
  IC50: 14.8 µM (active)
Beta-galactosidase
  IC50: > 66.6 µM (inactive)

## O=C(c1ccc([N+](=O)[O-])cc1)N1CCN(c2ncc(Br)cn2)CC1
[1]
  AC50: 72.3 µM (active)
[2]
  EC50: > 195 µM (not active)

## CCNCCNC(=O)c1c(O)nc2c(c1O)CCCC2
[1]
  AC50: 73.1 µM (active)

## Cc1nnc(N=c2ssnc2Cl)o1
[3]
  IC50: 16 µM (active)
[4]
  IC50: > 100 µM (inactive)
[5]
  IC50: 4.6 µM (active)
[6]
  IC50: 69.6 µM (active)
[7]
  AC50: 6.06 µM (active)
[8]
  AC50: 3.13 µM (active)
INS1
  AC50: 3.77 µM (active)
[9]
  IC50: 79 µM (inactive)

## COc1cc2nc(N3CCN(C(=O)[C@@H]4COc5ccccc5O4)CC3)nc(N)c2cc1OC.CS(=O)(=O)O
Cytochrome P450 2C19; read-out: AC50
  AC50: 0.501 µM (inconclusive)
Cytochrome P450 1A2 [10]
  AC50: inactive

## O=C(Cc1ccccc1)Nc1ccccc1Sc1ccccc1
[11]
  IC50: 38.7 µM (active)
[12]
  EC50: 1.88 µM (active)

## N[C@H](CCC(=O)O)C(=O)O [D-GLUTAMATE]
Cytochrome P450 3A4 [13]
  AC50: inactive
Cytochrome P450 2D6 [14]
  AC50: 10 µM (not active)
Cytochrome P450 2D6 [15]
  AC50: inactive; also recorded: inconclusive
Cytochrome P450 2C19
  AC50: inactive
Cytochrome P450 1A2 [16]
  AC50: 31.6 µM (inconclusive)
Cytochrome P450 2C9
  AC50: inactive
Cytochrome P450 3A4 [17]
  AC50: 25.1 µM (inconclusive)
Cytochrome P450 1A2 [10]
  AC50: inactive
